Test results as given in patent US6624182B1, “Hydroxyphenylvinylthiazoles” (Ciba Specialty Chemicals Corporation, priority 1999, dated 2003).

What was measured:
Assay in all cases: Determination of the minimum inhibitory concentration (MIC value) in microtitre plates
E. coli = type: cell-based, Escherichia coli NCTC 8196; details: Escherichia coli; optical density at 620 nm, 48 hours at 37° C., MIC = ≦20% growth; tested at 100; 10 and 1 ppm (approximate values); (2), (3), (4) at 120; 60; 30; 15; 7.5; 3.75 ppm
Procedure, shortened: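 E. coli NCTC 8196 grown overnight in CASO bouillon, adjusted to 1−5×10^6 KBE/ml, diluted 1:100 and added to DMSO-dissolved compounds in 1:2 dilution series. Incubated 48 h at 37° C; growth read as OD 620 nm. MIC is the lowest concentration giving ≤20% growth versus growth control; duplicates.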

P. aeruginosa = type: cell-based, Pseudomonas aeruginosa CIP A-22; details: Pseudomonas aeruginosa; optical density at 620 nm, 48 hours at 37° C., MIC = ≦20% growth; tested at 100; 10 and 1 ppm (approximate values); (2), (3), (4) at 120; 60; 30; 15; 7.5; 3.75 ppm
Procedure, shortened: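 P. aeruginosa CIP A-22 at 1−5×10^6 KBE/ml, diluted 1:100 in CASO bouillon, exposed to 1:2 serial dilutions of DMSO-dissolved compound for 48 h at 37 °C, in duplicate. Growth read by OD 620 nm; MIC is the lowest concentration giving ≤20% growth relative to growth control.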

C. albicans = type: cell-based, Candida albicans ATCC 10231; details: Candida albicans; optical density at 620 nm, 48 hours at 37° C., MIC = ≦20% growth; tested at 100; 10 and 1 ppm (approximate values); (2), (3), (4) at 120; 60; 30; 15; 7.5; 3.75 ppm
Procedure, shortened: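 Candida albicans ATCC 10231 grown overnight in CASO broth, adjusted to 1–5×10^6 CFU/ml then diluted 1:100, was exposed to 1:2 serial dilutions of compound (DMSO) for 48 h at 37 °C. Growth was read as OD620; MIC was the concentration giving ≤20% growth versus control, tested in duplicate.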

SMILES	MIC (E. coli) [µg/mL]	MIC (P. aeruginosa) [µg/mL]	MIC (C. albicans) [µg/mL]
Oc1ccc(/C=C/c2nc(-c3ccc(F)cc3)cs2)cc1 [Compound of formula (2)]	> 100	> 100	30
Oc1ccc(/C=C/c2nc(-c3ccccc3)cs2)cc1 [Compound of formula (4)]	> 100	> 100	30
CC(C)(C)c1csc(/C=C/c2ccccc2O)n1 [Compound of formula (3)]	> 100	> 100	> 100
